Laboratory results from publication PMC7055211 (Scientific Reports, 2020).

System: Mahoney strain of poliovirus
Assay type: cell-based, Poliovirus Type I Mahoney
Details: 293 T; infectivity; PFU

COc1ccc2[nH]c([S+]([O-])Cc3ncc(C)c(OC)c3C)nc2n1 (stereo not shown) [Tenatoprazole, tenatoprazole]
Virus Production (resistant or susceptible), PV: Resistant
